Results from patent US20220127247A1, “N-(PYRIDIN-2-YL)PYRIDINE-SULFONAMIDE DERIVATIVES AND THEIR USE IN THE TREATMENT OF DISEASE” (NOVARTIS AG, priority 2019, published 2022).

How the values were obtained:
delF508-CFTR [1] = molecular target: T1, delF508-CFTR (Homo sapiens, UniProt P13569, DEL508-508); assay: Measurement of delF508-CFTR-HRP surface expression in CFBE41o- cells; assay type: cell-based; conditions: for EC50: HRP-tagged delF508-CFTR in CFBE41o- cells, 24 h with compound, luminescence, 10-point curve, top 10 μM; for Emax: efficacy relative to reference compound 3-(6-(1-(2,2-difluorobenzo[d][1,3]dioxol-5-yl)cyclopropane-1-carboxamido)-3-methylpyridin-2-yl)benzoic acid, CFBE41o- cells, 24 h, read-out: DelF508-CFTR-HRP Amax %
T1 construct: expressed in transfected cells
T1 sequence (P13569 with tags, fused parts or gaps DEL508-508): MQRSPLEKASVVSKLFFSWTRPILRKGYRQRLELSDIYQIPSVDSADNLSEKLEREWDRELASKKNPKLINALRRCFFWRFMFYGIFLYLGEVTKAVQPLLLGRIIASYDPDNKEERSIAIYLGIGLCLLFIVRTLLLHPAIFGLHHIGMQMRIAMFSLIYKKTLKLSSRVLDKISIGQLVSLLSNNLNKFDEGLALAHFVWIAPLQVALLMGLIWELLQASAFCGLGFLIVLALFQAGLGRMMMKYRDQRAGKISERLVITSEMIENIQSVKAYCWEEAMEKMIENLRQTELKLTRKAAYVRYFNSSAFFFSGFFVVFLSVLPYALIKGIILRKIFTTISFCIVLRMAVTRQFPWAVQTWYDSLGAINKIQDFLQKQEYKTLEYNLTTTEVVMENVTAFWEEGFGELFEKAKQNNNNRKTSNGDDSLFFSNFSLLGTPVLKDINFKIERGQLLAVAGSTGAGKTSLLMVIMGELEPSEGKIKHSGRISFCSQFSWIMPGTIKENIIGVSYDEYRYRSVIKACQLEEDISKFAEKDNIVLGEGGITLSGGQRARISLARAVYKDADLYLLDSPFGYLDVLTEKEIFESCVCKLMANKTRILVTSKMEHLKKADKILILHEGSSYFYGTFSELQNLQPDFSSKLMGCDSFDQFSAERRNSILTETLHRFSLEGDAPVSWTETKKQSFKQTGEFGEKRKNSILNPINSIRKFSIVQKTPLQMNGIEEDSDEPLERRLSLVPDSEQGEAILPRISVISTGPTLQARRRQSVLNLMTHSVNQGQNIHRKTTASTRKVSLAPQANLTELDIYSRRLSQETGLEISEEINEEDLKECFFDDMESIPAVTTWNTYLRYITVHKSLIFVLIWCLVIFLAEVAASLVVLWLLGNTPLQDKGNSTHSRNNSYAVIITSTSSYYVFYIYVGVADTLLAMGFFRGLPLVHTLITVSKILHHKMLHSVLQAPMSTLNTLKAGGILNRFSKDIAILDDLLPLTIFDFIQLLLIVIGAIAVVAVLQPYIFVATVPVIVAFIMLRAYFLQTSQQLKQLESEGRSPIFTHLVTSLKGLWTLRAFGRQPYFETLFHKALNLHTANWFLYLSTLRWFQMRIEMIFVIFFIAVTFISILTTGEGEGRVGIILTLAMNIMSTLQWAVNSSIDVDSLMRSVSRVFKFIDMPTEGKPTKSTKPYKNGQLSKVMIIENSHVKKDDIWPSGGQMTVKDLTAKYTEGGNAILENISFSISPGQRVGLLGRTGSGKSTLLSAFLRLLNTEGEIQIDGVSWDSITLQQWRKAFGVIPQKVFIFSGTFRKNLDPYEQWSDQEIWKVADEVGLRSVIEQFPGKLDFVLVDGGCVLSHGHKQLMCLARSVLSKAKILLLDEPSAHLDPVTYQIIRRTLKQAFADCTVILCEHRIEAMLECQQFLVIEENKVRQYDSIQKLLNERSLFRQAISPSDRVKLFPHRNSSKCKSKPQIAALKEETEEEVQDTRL
In short: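 CFBE41o- cells stably expressing delF508-CFTR with HRP in the fourth extracellular loop, induced with 500 ng/mL doxycycline for 48 h, then treated with compound (top 10 μM, 10-point 3-fold) for 24 h at 37° C. Surface HRP detected by luminescence with cell-impermeant substrate; EC50 from logistic fit of triplicates, normalized to lowest concentration.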

delF508-CFTR [2] = molecular target: T1, delF508-CFTR; assay: delF508-CFTR functional activity in primary human bronchial epithelial cells (HBECs), Multi-Transepithelial Clamp Circuit (MTECC-24) assay; assay type: cell-based; conditions: for EC50: primary human delF508-CFTR bronchial epithelial cells, 24 h with compound, equivalent short circuit current (Ieq), forskolin plus potentiator, mean of at least two replicates, read-out: MTECC24-CFHBEC EC50; for MTECC24-CFHBEC Amax %: test compound added 24 h before assay, with potentiator (S)-3-amino-6-methoxy-N-(3,3,3-trifluoro-2-hydroxy-2-methylpropyl)-5-(trifluoromethyl)picolinamide, relative to 2 μM 3-(6-(1-(2,2-difluorobenzo[d][1,3]dioxol-5-yl)cyclopropane-1-carboxamido)-3-methylpyridin-2-yl)benzoic acid + 0.5 μM N-(2,4-di-tert-butyl-5-hydroxyphenyl)-4-oxo-1,4-dihydroquinoline-3-carboxamide
Description: Measurement of delF508-CFTR Functional Activity in Primary Human Bronchial Epithelial Cells (HBECs) Using Multi-Transepithelial Clamp Circuit (MTECC-24) Assay
This assay measures the functional activity of the CFTR channel (Chloride ion transport) in patient derived primary human bronchial epithelial cells with forskolin activation and in the presence of the CFTR corrector/potentiator combination.
Primary human delF508-CFTR bronchial epithelial cells were and cultured according to previously established methods (Neuberger, T. et, al., Methods in Molecular Biology, 2011, 741, pp 39-54). Briefly, before thawing the HBEC cells, T25 flasks were coated with 2 mL of 3T3 conditioned media (MTI-GlobalStem, Cat #GSM9100) for at least 12 hours in 37° C. CO2 incubator. 1.7×10^5 cells were seeded into one T25 flask with 5 mL of HBE growth media (BEBM with supplements (Lonza, Cat #CC-3170) with 10 nM of retinoic acid (Sigma, Cat #R-2625) and 1% of PSA (Hyclone, Cat #SV30079.01). Media was changed every day till the cells were 100% confluent. Cells were seeded into T75 flasks (pre-coated with 5 mL of 3T3 conditioned media for more than 12 hrs) at 4.95×10^5 cells/T75 flask in 15 mL of HBE growth media. Flasks were fed everyday with fresh HBE growth media until the cells were confluent. 24-well transwell plates (Corning, Cat #3378) were coated with 3T3 conditioned media (70 μL on top of the filter, 350 μL to the bottom of the well) overnight in the 37° C. CO2 incubator. Cells were seeded in the pre-coated 24-well transwell plates at 1.7×10^5 cell/well with 700 μL of growth media at the bottom of the well and 200 μL of growth media at the top of the filter. After 24 hrs, cells were switched into HBE differentiation media ((DMEM/F12 (Gibco, Cat #11330-032) supplement with 2% Ultroser G (Pall, Cat #15950-017), 2% of Fetal Clone II (Hyclone, Cat #SH30066.03), 0.25% Bovine Brain Extract (Lonza, Cat #CC-4098), 1% of PSA, 2.5 μg/mL of Insulin (Sigma, Cat #19278), 20 nM of Hydrocortisone (Sigma, Cat #H0888), 500 nM of Triiodothyronine (Sigma, Cat #T6397), 2.5 μg/mL of Transferrin (Sigma, Cat #T8158), 250 nM of Ethanolamine (Sigma, Cat #E0135), 1.5 μM of Epinephrine (Sigma, Cat #E4250), 250 nM of Phosphoethanolamine (Sigma, Cat #P0503), 10 nM of retinoic acid)) with 200 μL on top of the filter (apical side) and 700 μL at the bottom of the well (basolateral side). Cells were fed every other day with the differentiation media. After 4 days, cells were exposed to air/liquid interface. Then cells were fed every other day for 4 weeks before fully differentiated.
Cells were washed with 3 mM DTT in PBS at 70 ul/well for 30 min at 37° C. 6 days before the assay. 3 days before the assay, cells were washed again with PBS at 70 ul/well for 30 min at 37° C. Then cells were treated with compound for 24 hrs before the assay.
Following 24 hr treatment with compound, cells were transferred into plates containing 750 ul of assay media on basolateral side and 250 ul on apical side (Assay medium: F-12 Coon's modified, 20 mM HEPES pH7.4 with TRIS Base, No FCS or bicarbonate). The plates wee then transferred to the heated plate compartments (basolateral buffer temperature ˜36.5° C. on the heating block) of the TECC24 system for 45 mins prior to measurements.
Modulators were added sequentially as follows while the TECC24 instrument recorded the equivalent short circuit current (Ieq):
Prior to dilution into assay medium the stocks were as follows: • Benzamil stock: 10 mM in DMSO • Forskolin Stock: 50 mM in DMSO • N-(2,4-di-tert-butyl-5-hydroxyphenyl)-1,4-dihydro-4-oxoquinoline-3-carboxamide: 50 mM in DMSO • (S)-3-amino-6-methoxy-N-(3,3,3-trifluoro-2-hydroxy-2-methylpropyl)-5-(trifluoromethyl)picolinamide: 50 mM stock 100% DMSO • Bumetanide stock: 20 mM in EtOH
The data was normalized using the median signal from wells treated with 0.1% DMSO as a baseline. Curve fitting and EC50 calculations were performed using the following equation: […]

Compound	EC50 (delF508-CFTR [1])	EC50 (delF508-CFTR [2])	MTECC24-CFHBEC Amax % (delF508-CFTR [2])	Emax (delF508-CFTR [1])
Cc1ccccc1-c1nc(NS(=O)(=O)c2cccc(N3CCC[C@H](CCC(=O)O)C3)n2)ccc1C(F)(F)F (single isomer, unassigned) [Compound 62]	1220 nM	9 nM	150%	–
Cc1ccccc1-c1nc(NS(=O)(=O)c2cccc(N3CCC[C@@H](CCC(=O)O)C3)n2)ccc1C(F)(F)F (single isomer, unassigned) [Compound 63]	1460 nM	17 nM	149%	–
Cc1ccc(F)cc1-c1nc(NS(=O)(=O)c2cccc(N3CCC[C@@](C)(CC(=O)O)C3)n2)ccc1C(F)(F)F (single isomer, unassigned) [Compound 64]	1330 nM	2 nM	107%	–
Cc1ccc(F)cc1-c1nc(NS(=O)(=O)c2cccc(N3CCC[C@](C)(CC(=O)O)C3)n2)ccc1C(F)(F)F (single isomer, unassigned) [Compound 65]	1730 nM	31 nM	155%	–
CCN(CCC(=O)O)c1cccc(S(=O)(=O)Nc2ccc(C(F)(F)F)c(-c3cccc(F)c3C)n2)n1 [Compound 56, 3-(ethyl(6-(N-(6-(3-fluoro-2-methylphenyl)-5-(trifluoromethyl)pyridin-2-yl)sulfamoyl)pyridin-2-yl)amino)propanoic Acid]	2170 nM	373 nM	131%	906%
Cc1ccccc1-c1nc(NS(=O)(=O)c2cccc(N3CCC[C@@H](CC(=O)O)C3)n2)ccc1C(F)(F)F [Compound 60, (S)-2-(1-(6-(N-(6-(o-tolyl)-5-(trifluoromethyl)pyridin-2-yl)sulfamoyl)pyridin-2-yl)piperidin-3-yl)acetic Acid]	1910 nM	65 nM	128%	997%
Cc1ccccc1-c1nc(NS(=O)(=O)c2cccc(N(C)CCCCC(=O)O)n2)ccc1C(F)(F)F [Compound 66, 5-(methyl(6-(N-(6-(o-tolyl)-5-(trifluoromethyl)pyridin-2-yl)sulfamoyl)pyridin-2-yl)amino)pentanoic Acid]	1600 nM	185 nM	133%	–
Cc1c(F)cccc1-c1nc(NS(=O)(=O)c2cccc(N(C)CCCCC(=O)O)n2)ccc1C(F)(F)F [Compound 67, 5-((6-(N-(6-(3-fluoro-2-methylphenyl)-5-(trifluoromethyl)pyridin-2-yl)sulfamoyl)pyridin-2-yl)(methyl)amino)pentanoic Acid]	1630 nM	161 nM	168%	–
Cc1ccc(F)cc1-c1nc(NS(=O)(=O)c2cccc(N(C)CCCCC(=O)O)n2)ccc1C(F)(F)F [Compound 68, 5-((6-(N-(6-(5-fluoro-2-methylphenyl)-5-(trifluoromethyl)pyridin-2-yl)sulfamoyl)pyridin-2-yl)(methyl)amino)pentanoic Acid]	1350 nM	423 nM	116%	996%
CCN(CCC(=O)O)c1cccc(S(=O)(=O)Nc2ccc(C(F)(F)F)c(-c3ccccc3C(C)C)n2)n1 [Compound 70, 3-(ethyl(6-(N-(6-(2-isopropylphenyl)-5-(trifluoromethyl)pyridin-2-yl)sulfamoyl)pyridin-2-yl)amino)propanoic Acid]	1570 nM	68 nM	126%	–
CCN(CCC(=O)O)c1cccc(S(=O)(=O)Nc2ccc(C(F)(F)F)c(-c3ccccc3C)n2)n1 [Compound 71, 3-(ethyl(6-(N-(6-(o-tolyl)-5-(trifluoromethyl)pyridin-2-yl)sulfamoyl)pyridin-2-yl)amino)propanoic Acid]	2360 nM	365 nM	137%	–
CCc1ccccc1-c1nc(NS(=O)(=O)c2cccc(N(CC)CCC(=O)O)n2)ccc1C(F)(F)F [Compound 72, 3-(ethyl(6-(N-(6-(2-ethylphenyl)-5-(trifluoromethyl)pyridin-2-yl)sulfamoyl)pyridin-2-yl)amino)propanoic Acid]	1880 nM	116 nM	118%	–
CCN(CCC(=O)O)c1cccc(S(=O)(=O)Nc2ccc(C(F)(F)F)c(-c3ccccc3C3CC3)n2)n1 [Compound 80, 3-((6-(N-(6-(2-cyclopropylphenyl)-5-(trifluoromethyl)pyridin-2-yl)sulfamoyl)pyridin-2-yl)(ethyl)amino)propanoic Acid]	1930 nM	105 nM	95%	–
CCc1ccc(F)cc1-c1nc(NS(=O)(=O)c2cccc(N(CC)CCC(=O)O)n2)ccc1C(F)(F)F [Compound 81, 3-(ethyl(6-(N-(6-(2-ethyl-5-fluorophenyl)-5-(trifluoromethyl)pyridin-2-yl)sulfamoyl)pyridin-2-yl)amino)propanoic Acid]	1770 nM	35 nM	145%	–
CCc1ccccc1-c1nc(NS(=O)(=O)c2cccc(N3CCC[C@@H](CC(=O)O)C3)n2)ccc1C(F)(F)F [Compound 85, (S)-2-(1-(6-(N-(6-(2-ethylphenyl)-5-(trifluoromethyl)pyridin-2-yl)sulfamoyl)pyridin-2-yl)piperidin-3-yl)acetic Acid]	1410 nM	30 nM	152%	–
Cc1ccccc1-c1nc(NS(=O)(=O)c2cccc(N(CCC(=O)O)CC3CC3)n2)ccc1C(F)(F)F [Compound 86, 3-((cyclopropylmethyl)(6-(N-(6-(o-tolyl)-5-(trifluoromethyl)pyridin-2-yl)sulfamoyl)pyridin-2-yl)amino)propanoic Acid]	1380 nM	61 nM	253%	–
CCCCN(CCCC(=O)O)c1cccc(S(=O)(=O)Nc2ccc(C(F)(F)F)c(-c3ccccc3C)n2)n1 [Compound 87, 4-(butyl(6-(N-(6-(o-tolyl)-5-(trifluoromethyl)pyridin-2-yl)sulfamoyl)pyridin-2-yl)amino)butanoic Acid]	1380 nM	104 nM	269%	–
